# Reference: the supplement of paper PMC10307832
# What was measured:
# Test in all cases: relative viability (nuclei count vs DMSO), 5 days (fraction); higher = more cells survive
# Neratinib + Lapatinib = compound: CCOc1cc2ncc(C#N)c(Nc3ccc(OCc4ccccn4)c(Cl)c3)c2cc1NC(=O)/C=C/CN(C)C [Neratinib] + CS(=O)(=O)CCNCc1ccc(-c2ccc3ncnc(Nc4ccc(OCc5cccc(F)c5)c(Cl)c4)c3c2)o1 [Lapatinib] (partner 2 µM)
# Outline: (§1)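 Lung cancer cell lines, seeded in 1536-well plates, were treated the following day by pin tool with a single drug or with five library-drug doses (not always all listed) in √10 steps on top of a fixed anchor-drug dose. Cells were fixed and nuclei stained in one step after 5 days, and nuclei were counted. Relative viability is the nuclei count for treated wells divided by that for vehicle wells, reported as medians of duplicate plates.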
# Neratinib + Olaparib = compound: CCOc1cc2ncc(C#N)c(Nc3ccc(OCc4ccccn4)c(Cl)c3)c2cc1NC(=O)/C=C/CN(C)C [Neratinib] + O=C(c1cc(Cc2n[nH]c(=O)c3ccccc23)ccc1F)N1CCN(C(=O)C2CC2)CC1 [Olaparib] (partner 8 µM)
# Outline: as §1
# Neratinib + Phenformin = compound: CCOc1cc2ncc(C#N)c(Nc3ccc(OCc4ccccn4)c(Cl)c3)c2cc1NC(=O)/C=C/CN(C)C [Neratinib] + N=C(N)NC(=N)NCCc1ccccc1 [Phenformin] (partner 250 µM)
# Outline: as §1
# Neratinib + Trametinib = compound: CCOc1cc2ncc(C#N)c(Nc3ccc(OCc4ccccn4)c(Cl)c3)c2cc1NC(=O)/C=C/CN(C)C [Neratinib] + CC(=O)Nc1cccc(-n2c(=O)n(C3CC3)c(=O)c3c(Nc4ccc(I)cc4F)n(C)c(=O)c(C)c32)c1 [Trametinib] (partner 0.02 µM)
# Outline: as §1
Cell Line,relative viability (Neratinib + Lapatinib; first compound 0.01 µM),relative viability (Neratinib + Lapatinib; first compound 0.03162 µM),relative viability (Neratinib + Lapatinib; first compound 0.1 µM),relative viability (Neratinib + Lapatinib; first compound 0.3162 µM),relative viability (Neratinib + Lapatinib; first compound 1 µM),relative viability (Neratinib + Olaparib; first compound 0.01 µM),relative viability (Neratinib + Olaparib; first compound 0.03162 µM),relative viability (Neratinib + Olaparib; first compound 0.1 µM),relative viability (Neratinib + Olaparib; first compound 0.3162 µM),relative viability (Neratinib + Olaparib; first compound 1 µM),relative viability (Neratinib + Phenformin; first compound 0.01 µM),relative viability (Neratinib + Phenformin; first compound 0.03162 µM),relative viability (Neratinib + Phenformin; first compound 0.1 µM),relative viability (Neratinib + Phenformin; first compound 0.3162 µM),relative viability (Neratinib + Phenformin; first compound 1 µM),relative viability (Neratinib + Trametinib; first compound 0.01 µM),relative viability (Neratinib + Trametinib; first compound 0.03162 µM),relative viability (Neratinib + Trametinib; first compound 0.1 µM),relative viability (Neratinib + Trametinib; first compound 0.3162 µM),relative viability (Neratinib + Trametinib; first compound 1 µM)
HCC-44,1.04,1.15,0.792,0.963,1.07,1.04,1.03,0.899,0.94,0.979,0.22,0.228,0.213,0.157,0.245,1.14,1.08,1.11,1.08,1.09
NCI-H1734,1.28,1.1,0.909,1.06,0.829,0.76,0.694,0.545,0.525,0.457,0.428,0.429,0.382,0.412,0.32,0.781,0.788,0.587,–,0.503
NCI-H23,1.05,0.932,1.09,1.02,0.762,0.283,0.284,0.317,0.328,0.314,0.959,0.905,0.827,0.731,0.597,0.397,0.401,0.35,0.342,0.251
COR-L23,1.07,1.14,0.781,0.882,0.598,0.349,0.398,0.275,0.365,0.311,0.44,0.469,0.429,0.473,0.41,0.572,0.603,0.598,0.482,0.379
PC-14,0.365,0.327,0.267,0.285,0.302,0.188,0.344,0.37,0.233,0.102,0.602,0.764,0.655,0.267,0.186,0.717,0.832,0.573,0.096,0.0456
NCI-H2009,0.939,1.15,0.862,0.834,1.52,0.691,0.752,0.65,0.689,0.732,0.482,0.509,0.484,0.389,0.303,0.301,0.262,0.307,0.266,0.179
NCI-H1437,0.911,0.881,0.771,0.721,0.703,0.673,0.614,0.612,0.603,0.663,0.351,0.284,0.281,0.243,0.29,0.488,0.579,0.485,0.424,0.328
NCI-H647,0.989,1.27,0.857,1,0.802,0.426,0.518,0.4,0.294,0.263,0.574,–,0.398,0.368,0.113,0.439,0.543,0.366,0.466,0.229
201T,1.07,0.943,0.981,1.08,1.05,0.811,0.813,0.737,0.782,0.838,0.484,0.424,0.44,0.379,0.42,0.755,–,0.688,0.707,0.707
NCI-H358,0.502,0.47,0.42,0.405,0.237,0.552,0.569,0.409,0.238,0.162,0.28,0.266,0.164,0.147,0.101,0.119,0.118,0.0959,0.121,0.125
NCI-H1650,–,0.66,0.736,0.84,0.742,0.867,0.712,0.717,0.652,0.796,0.464,0.422,0.311,0.302,0.271,0.62,0.744,0.494,0.405,0.315
LOU-NH91,0.809,0.776,0.733,0.743,0.567,0.977,0.944,–,0.678,0.632,0.664,0.634,0.525,0.426,0.412,0.795,0.746,0.698,0.67,0.597
HOP-62,–,–,0.879,0.825,1.21,0.416,0.459,0.367,0.412,0.344,0.716,0.702,0.621,0.585,0.617,0.408,0.4,0.337,–,0.405
NCI-H1915,1.05,1.05,0.898,0.832,0.964,0.232,–,0.221,0.245,0.252,0.383,0.384,0.228,0.354,0.39,0.32,0.314,0.294,0.299,0.23
NCI-H322M,0.587,0.569,0.522,0.567,0.449,0.715,–,0.785,0.512,0.415,0.762,0.671,0.671,0.376,0.283,0.519,0.486,0.506,0.488,0.373
NCI-H1651,0.881,1.01,0.77,–,0.68,0.183,0.191,0.185,0.19,0.193,0.332,0.383,0.339,0.27,0.32,0.87,–,0.793,0.759,0.609
RERF-LC-KJ,0.78,0.923,0.854,–,0.915,0.925,0.911,0.828,0.848,0.468,0.427,0.405,0.385,0.318,0.353,0.844,0.889,0.785,0.694,0.504
